Results reported in the supplement of paper PMC8149375.

How the values were obtained:
Conditions in all cases: treatment: drug + dasatinib (fixed dose, not stated); 5 days
SN12C [1] = assay: AUC of dose-response viability curve, drug + dasatinib, normalised to DMSO (arbitrary (AUC of normalised viability)); higher = less growth inhibition
Experimental: (§1)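 Primary HTS combination arm: 8 RCC cell lines treated with 8 doses (up to 10 uM) of each library drug plus a fixed dose of dasatinib (dose not stated) for 5 days; viability read by CellTiter-Glo and normalised to DMSO. GI50 was fitted with XLfit, AUC is the area under the dose-response curve, and minimum viability is the lowest fraction of DMSO viability across doses.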

A498 [2] = assay: as above
Experimental: as §1

TK-10 [3] = assay: as above
Experimental: as §1

ACHN [4] = assay: as above
Experimental: as §1

786-O [5] = assay: as above
Experimental: as §1

UO-31 [6] = assay: as above
Experimental: as §1

CAKI-1 [7] = assay: as above
Experimental: as §1

769-P [8] = assay: as above
Experimental: as §1

SN12C [9] = assay: minimum viability across doses, drug + dasatinib, relative to DMSO (fraction); higher = less growth inhibition
Experimental: as §1

A498 [10] = assay: as above
Experimental: as §1

TK-10 [11] = assay: as above
Experimental: as §1

ACHN [12] = assay: as above
Experimental: as §1

786-O [13] = assay: as above
Experimental: as §1

UO-31 [14] = assay: as above
Experimental: as §1

CAKI-1 [15] = assay: as above
Experimental: as §1

769-P [16] = assay: as above
Experimental: as §1

SN12C [17] = assay: GI50 of drug in presence of dasatinib; higher = less potent
Experimental: as §1

A498 [18] = assay: as above
Experimental: as §1

TK-10 [19] = assay: as above
Experimental: as §1

ACHN [20] = assay: as above
Experimental: as §1

786-O [21] = assay: as above
Experimental: as §1

UO-31 [22] = assay: as above
Experimental: as §1

CAKI-1 [23] = assay: as above
Experimental: as §1

769-P [24] = assay: as above
Experimental: as §1

SMILES | AUC of dose-response viability curve (SN12C [1]) | AUC of dose-response viability curve (A498 [2]) | AUC of dose-response viability curve (TK-10 [3]) | AUC of dose-response viability curve (ACHN [4]) | AUC of dose-response viability curve (786-O [5]) | AUC of dose-response viability curve (UO-31 [6]) | AUC of dose-response viability curve (CAKI-1 [7]) | AUC of dose-response viability curve (769-P [8]) | minimum viability across doses (SN12C [9]) | minimum viability across doses (A498 [10]) | minimum viability across doses (TK-10 [11]) | minimum viability across doses (ACHN [12]) | minimum viability across doses (786-O [13]) | minimum viability across doses (UO-31 [14]) | minimum viability across doses (CAKI-1 [15]) | minimum viability across doses (769-P [16]) | GI50 of drug (SN12C [17]) [nM] | GI50 of drug (A498 [18]) [nM] | GI50 of drug (TK-10 [19]) [nM] | GI50 of drug (ACHN [20]) [nM] | GI50 of drug (786-O [21]) [nM] | GI50 of drug (UO-31 [22]) [nM] | GI50 of drug (CAKI-1 [23]) [nM] | GI50 of drug (769-P [24]) [nM]
CC1(C)CNc2cc(NC(=O)c3cccnc3NCc3ccncc3)ccc21.O=P(O)(O)O.O=P(O)(O)O [Motesanib Diphosphate] + Cc1nc(Nc2ncc(C(=O)Nc3c(C)cccc3Cl)s2)cc(N2CCN(CCO)CC2)n1 [dasatinib] | 2.56 | 3.26 | 2.87 | 2.3 | 2.74 | 3.93 | 2.39 | 2.34 | 0.711 | 0.877 | 0.724 | 0.512 | 0.714 | 0.944 | 0.542 | 0.599 | > 10000 | > 10000 | > 10000 | > 10000 | > 10000 | > 10000 | > 10000 | > 10000
FC(F)(F)c1ccc(/C=C/c2nc(COc3ccc(CCCCn4ccnn4)cc3)co2)cc1 [Mubritinib (TAK 165)] + Cc1nc(Nc2ncc(C(=O)Nc3c(C)cccc3Cl)s2)cc(N2CCN(CCO)CC2)n1 [dasatinib] | 1.09 | 1.99 | 1.56 | 1.26 | 0.96 | 1.66 | 2.17 | 2.32 | 0.0505 | 0.231 | 0.168 | 0.183 | 0.0257 | 0.124 | 0.543 | 0.539 | 41.6 | 243 | 146 | 31.4 | 23.8 | 74.7 | > 10000 | > 10000
Nc1ncnc2c1c(-c1cccc(OCc3ccccc3)c1)cn2[C@H]1C[C@H](CN2CCCC2)C1 [NVP-ADW742] + Cc1nc(Nc2ncc(C(=O)Nc3c(C)cccc3Cl)s2)cc(N2CCN(CCO)CC2)n1 [dasatinib] | 2.44 | 3.18 | 2.44 | 1.77 | 2.33 | 2.57 | 2 | 2.45 | 0.48 | 0.296 | 0.124 | 0.147 | 0.172 | 0.0171 | 0.0883 | 0.278 | > 10000 | 8960 | 3390 | 129 | 3280 | 2490 | 1290 | 5140
COc1ccc(-c2ccc3ncc4c(c3c2)n(-c2ccc(N3CCNCC3)c(C(F)(F)F)c2)c(=O)n4C)cn1.O=C(O)/C=C\C(=O)O [NVP-BGT226] + Cc1nc(Nc2ncc(C(=O)Nc3c(C)cccc3Cl)s2)cc(N2CCN(CCO)CC2)n1 [dasatinib] | 0.601 | 0.972 | 0.725 | 0.453 | 0.402 | 0.779 | 0.631 | 0.87 | 0.00253 | 0.0127 | 0.00345 | 0.00153 | 0.00462 | 0.0107 | 0.00249 | 0.00834 | 6.06 | 20 | 12.2 | 4.38 | 5.3 | 14.2 | 10.1 | 15.9
Cc1ccc(C(=O)Nc2cccc(C(F)(F)F)c2)cc1Nc1nc(-c2cccnc2)nc2c1cnn2C [NVP-BHG712] + Cc1nc(Nc2ncc(C(=O)Nc3c(C)cccc3Cl)s2)cc(N2CCN(CCO)CC2)n1 [dasatinib] | 2.37 | 3.17 | 2.1 | 1.8 | 1.66 | 3.61 | 1.87 | 2.16 | 0.0536 | 0.0233 | 0.0343 | 0.126 | 0.00229 | 0.00794 | 0.026 | 0.0398 | 6860 | 4420 | 1070 | 511 | 491 | 3110 | 506 | 1640
Cl.Cl.Fc1cc(-c2cccc3ncc(-c4cnn(C5CCNCC5)c4)nc23)cc(F)c1CN1CCOCC1 [NVP-BSK805] + Cc1nc(Nc2ncc(C(=O)Nc3c(C)cccc3Cl)s2)cc(N2CCN(CCO)CC2)n1 [dasatinib] | 2.15 | 3.09 | 2.08 | 1.64 | 1.85 | 3.35 | 1.9 | 2.29 | 0.127 | 0.0371 | 0.108 | 0.0139 | 0.00448 | 0.0214 | 0.0163 | 0.37 | 2430 | 5130 | 1420 | 380 | 44.1 | 2940 | 962 | 3940
Cn1cc(-c2ccc3ncc(Cc4ccc5ncccc5c4)n3n2)cn1 [NVP-BVU972] + Cc1nc(Nc2ncc(C(=O)Nc3c(C)cccc3Cl)s2)cc(N2CCN(CCO)CC2)n1 [dasatinib] | 2.12 | 3.44 | 2.03 | 1.28 | 1.79 | 3.81 | 1.71 | 2.06 | 0.0116 | 0.0158 | 0.119 | 0.0103 | 0.00818 | 0.0147 | 0.0417 | 0.0263 | 1900 | 1440 | 836 | 15.4 | 361 | 2040 | 303 | 1150
CNC(=O)c1ccccc1Nc1nc(Nc2ccc(N3CCOCC3)cc2OC)ncc1Cl [NVP-TAE226] + Cc1nc(Nc2ncc(C(=O)Nc3c(C)cccc3Cl)s2)cc(N2CCN(CCO)CC2)n1 [dasatinib] | 1.91 | 3.26 | 1.64 | 1.19 | 1.1 | 2.35 | 1.34 | 1.98 | 0.132 | 0.201 | 0.0355 | 0.0673 | 0.00641 | 0.00626 | 0.0135 | 0.085 | 335 | 5880 | 202 | 27.4 | 26.7 | 334 | 107 | 750
COc1ccc(C2=NC(c3ccc(Cl)cc3)C(c3ccc(Cl)cc3)N2C(=O)N2CCNC(=O)C2)c(OC(C)C)c1 (stereo unspecified) [Nutlin-3] + Cc1nc(Nc2ncc(C(=O)Nc3c(C)cccc3Cl)s2)cc(N2CCN(CCO)CC2)n1 [dasatinib] | 2.62 | 3.61 | 2.5 | 1.89 | 2.83 | 4.46 | 2.15 | 2.54 | 0.712 | 0.905 | 0.665 | 0.2 | 0.707 | 0.583 | 0.168 | 0.519 | > 10000 | > 10000 | > 10000 | 2000 | > 10000 | > 10000 | 2420 | > 10000
COc1cccc2cc(-c3nc([C@H]4CC[C@H](C(=O)O)CC4)n4ncnc(N)c34)[nH]c12 [OSI-027] + Cc1nc(Nc2ncc(C(=O)Nc3c(C)cccc3Cl)s2)cc(N2CCN(CCO)CC2)n1 [dasatinib] | 2.05 | 3.08 | 2.23 | 1.67 | 1.84 | 2.91 | 1.65 | 2.25 | 0.15 | 0.139 | 0.152 | 0.0877 | 0.0675 | 0.00633 | 0.0226 | 0.227 | 1110 | 4020 | 1100 | 322 | 252 | 2240 | 341 | 2380
C#Cc1cccc(Nc2ncnc3cc(OCCOC)c(OCCO)cc23)c1.Cl [OSI-420 (Desmethyl Erlotinib)] + Cc1nc(Nc2ncc(C(=O)Nc3c(C)cccc3Cl)s2)cc(N2CCN(CCO)CC2)n1 [dasatinib] | 2.36 | 3.08 | 2.18 | 1.35 | 2.22 | 3.77 | 1.93 | 1.96 | 0.442 | 0.761 | 0.379 | 0.0775 | 0.403 | 0.325 | 0.11 | 0.226 | > 10000 | > 10000 | 2320 | 23.1 | < 3 | 8630 | 1070 | 510
O=C(Nc1ccc(OC(F)(F)F)cc1)c1sccc1NCc1ccnc2ccccc12 [OSI-930] + Cc1nc(Nc2ncc(C(=O)Nc3c(C)cccc3Cl)s2)cc(N2CCN(CCO)CC2)n1 [dasatinib] | 2.57 | 3.69 | 2.71 | 2.07 | 2.41 | 3.25 | 2.23 | 2.23 | 0.174 | 0.685 | 0.395 | 0.129 | 0.32 | 0.0216 | 0.136 | 0.24 | 6210 | > 10000 | 6520 | 2350 | 4480 | 4590 | 3170 | 3090
COC1=CC(c2cc3ccccc3[nH]2)=N/C1=C\c1[nH]c(C)cc1C.CS(=O)(=O)O [Obatoclax mesylate (GX15-070)] + Cc1nc(Nc2ncc(C(=O)Nc3c(C)cccc3Cl)s2)cc(N2CCN(CCO)CC2)n1 [dasatinib] | 1.38 | 1.76 | 1.58 | 0.992 | 0.949 | 2.23 | 1.4 | 1.46 | 0.00176 | 0.0102 | 0.151 | 0.014 | 0.00545 | 0.00726 | 0.00534 | 0.0261 | 153 | 277 | 86.6 | 15.4 | 31.6 | 305 | 122 | 145
C=CCc1cccc(/C=N/NC(=O)CN2CCN(Cc3ccccc3)CC2)c1O [PAC-1] + Cc1nc(Nc2ncc(C(=O)Nc3c(C)cccc3Cl)s2)cc(N2CCN(CCO)CC2)n1 [dasatinib] | 2.41 | 3.38 | 2.04 | 1.49 | 1.73 | 3.14 | 2.07 | 2.17 | 0.0519 | 0.169 | 0.0728 | 0.0168 | 0.0103 | 0.0141 | 0.0701 | 0.0266 | 3460 | 4840 | 764 | 174 | 427 | 2010 | 1350 | 1420
